Laboratory results as given in US9499550B2 (BRISTOL-MYERS SQUIBB COMPANY, priority 2012, dated 2016).

Columns and labels:
[1] = tested on: HCV genotype 1a (H77 strain) replicon in HUH-7 cells; assay: HCV replicon luciferase reporter assay, genotype 1a; type: cell-based; settings: Hepatitis C virus, Huh-7, 72 h, HCV genotype 1a replicon luciferase assay, 3 days incubation, range class, read-out: LE_1a (EC50, range)
Summary of the method: (§1)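 Replicon inhibition for both genotypes was measured as Renilla luciferase signal (EnduRen, 7.5 μM final, 2 h) after 3-day, 37° C exposure of replicon-bearing HUH-7 cells in 4% FCS DMEM, 0.5% DMSO. The 1b construct carries S1179I; the 1a H77 construct carries P1496L and S2204I. Twenty-point, 3-fold dilutions were fitted four-parametrically for EC50, and CC50 was taken from multiplexed Cell Titer-Blue.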

[2] = tested on: HCV genotype 1b (Con1) replicon in HUH-7 cells; assay: HCV replicon luciferase reporter assay, genotype 1b; type: cell-based; settings: Hepatitis C virus, Huh-7, 72 h, HCV genotype 1b replicon luciferase assay, 3 days incubation, range class, read-out: LE_1b (EC50, range)
Summary of the method: as §1

Row | Structure (SMILES) | EC50 [1] | EC50 [2]
1 | COc1ccc2c(O[C@@H]3C[C@H]4C(=O)N[C@]5(C(=O)NS(=O)(=O)C6(CF)CC6)C[C@H]5/C=C\CC[C@@H](C)C[C@@H](C)[C@H](NC(=O)OC(C)(C)C(F)(F)F)C(=O)N4C3)nc(Cl)cc2c1 [Compound 1165, 1,1,1-trifluoro-2-methylpropan-2-yl((2R,6S,7R,9R,13aS,14aR,16aS,Z)-2-((3-chloro-6-methoxyisoquinolin-1-yl)oxy)-14a-(((1-(fluoromethyl)cyclopropyl)sulfonyl)carbamoyl)-7,9-dimethyl-5,16-dioxo-1,2,3,5,6,7,8,9,10,11,13a,14,14a,15,16,16a-hexadecahydrocyclopropa[e]pyrrolo[1,2-a][1,4]diazacyclopentadecin-6-yl)carbamate] | < 5.46 nM | < 5.46 nM
2 | COc1ccc2c(O[C@@H]3C[C@H]4C(=O)N[C@]5(C(=O)NS(=O)(=O)C6(CF)CC6)C[C@H]5/C=C\CC[C@H](C)C[C@@H](C)[C@H](NC(=O)OC(C)(C)C(C)(F)F)C(=O)N4C3)ncc(C(F)(F)F)c2c1 [Compound 1166, 3,3-difluoro-2-methylbutan-2-yl((2R,6S,7R,9S,13aS,14aR,16aS,Z)-14a-(((1-(fluoromethyl)cyclopropyl)sulfonyl)carbamoyl)-2-((6-methoxy-4-(trifluoromethyl)isoquinolin-1-yl)oxy)-7,9-dimethyl-5,16-dioxo-1,2,3,5,6,7,8,9,10,11,13a,14,14a,15,16,16a-hexadecahydrocyclopropa[e]pyrrolo[1,2-a][1,4]diazacyclopentadecin-6-yl)carbamate] | 4.82 to 103 nM | 4.82 to 103 nM
3 | COc1ccc2c(O[C@@H]3C[C@H]4C(=O)N[C@]5(C(=O)NS(=O)(=O)C6(CF)CC6)C[C@H]5/C=C\CC[C@@H](C)C[C@@H](C)[C@H](NC(=O)OC(C)(C)C(C)(F)F)C(=O)N4C3)ncc(C(F)(F)F)c2c1 [Compound 1167, 3,3-difluoro-2-methylbutan-2-yl((2R,6S,7R,9R,13aS,14aR,16aS,Z)-14a-(((1-(fluoromethyl)cyclopropyl)sulfonyl)carbamoyl)-2-((6-methoxy-4-(trifluoromethyl)isoquinolin-1-yl)oxy)-7,9-dimethyl-5,16-dioxo-1,2,3,5,6,7,8,9,10,11,13a,14,14a,15,16,16a-hexadecahydrocyclopropa[e]pyrrolo[1,2-a][1,4]diazacyclopentadecin-6-yl)carbamate] | < 5.46 nM | < 5.46 nM
4 | COc1ccc2c(O[C@@H]3C[C@H]4C(=O)N[C@]5(C(=O)NS(=O)(=O)C6(CF)CC6)C[C@H]5/C=C\CC[C@H](C)C[C@@H](C)[C@H](NC(=O)OC(C)(C)C(F)(F)F)C(=O)N4C3)nc(C(F)(F)F)cc2c1 [Compound 1168, 1,1,1-trifluoro-2-methylpropan-2-yl((2R,6S,7R,9S,13aS,14aR,16aS,Z)-14a-(((1-(fluoromethyl)cyclopropyl)sulfonyl)carbamoyl)-2-((6-methoxy-3-(trifluoromethyl)isoquinolin-1-yl)oxy)-7,9-dimethyl-5,16-dioxo-1,2,3,5,6,7,8,9,10,11,13a,14,14a,15,16,16a-hexadecahydrocyclopropa[e]pyrrolo[1,2-a][1,4]diazacyclopentadecin-6-yl)carbamate] | 4.82 to 103 nM | 4.82 to 103 nM
5 | COc1ccc2c(O[C@@H]3C[C@H]4C(=O)N[C@]5(C(=O)NS(=O)(=O)C6(CF)CC6)C[C@H]5/C=C\CC[C@@H](C)C[C@@H](C)[C@H](NC(=O)OC(C)(C)C(F)(F)F)C(=O)N4C3)nc(C(F)(F)F)cc2c1 [Compound 1169, 1,1,1-trifluoro-2-methylpropan-2-yl((2R,6S,7R,9R,13aS,14aR,16aS,Z)-14a-(((1-(fluoromethyl)cyclopropyl)sulfonyl)carbamoyl)-2-((6-methoxy-3-(trifluoromethyl)isoquinolin-1-yl)oxy)-7,9-dimethyl-5,16-dioxo-1,2,3,5,6,7,8,9,10,11,13a,14,14a,15,16,16a-hexadecahydrocyclopropa[e]pyrrolo[1,2-a][1,4]diazacyclopentadecin-6-yl)carbamate] | < 5.46 nM | < 5.46 nM
6 | COc1ccc2c(O[C@@H]3C[C@H]4C(=O)N[C@]5(C(=O)NS(=O)(=O)C6(CF)CC6)C[C@H]5/C=C\CC[C@H](C)C[C@@H](C)[C@H](NC(=O)OC(C)(C)C(C)(F)F)C(=O)N4C3)nc(C(F)(F)F)cc2c1 [Compound 1170, 3,3-difluoro-2-methylbutan-2-yl((2R,6S,7R,9S,13aS,14aR,16aS,Z)-14a-(((1-(fluoromethyl)cyclopropyl)sulfonyl)carbamoyl)-2-((6-methoxy-3-(trifluoromethyl)isoquinolin-1-yl)oxy)-7,9-dimethyl-5,16-dioxo-1,2,3,5,6,7,8,9,10,11,13a,14,14a,15,16,16a-hexadecahydrocyclopropa[e]pyrrolo[1,2-a][1,4]diazacyclopentadecin-6-yl)carbamate] | 4.82 to 103 nM | 4.82 to 103 nM
7 | COc1ccc2c(O[C@@H]3C[C@H]4C(=O)N[C@]5(C(=O)NS(=O)(=O)C6(CF)CC6)C[C@H]5/C=C\CC[C@@H](C)C[C@@H](C)[C@H](NC(=O)OC(C)(C)C(C)(F)F)C(=O)N4C3)nc(C(F)(F)F)cc2c1 [Compound 1171, 3,3-difluoro-2-methylbutan-2-yl((2R,6S,7R,9R,13aS,14aR,16aS,Z)-14a-(((1-(fluoromethyl)cyclopropyl)sulfonyl)carbamoyl)-2-((6-methoxy-3-(trifluoromethyl)isoquinolin-1-yl)oxy)-7,9-dimethyl-5,16-dioxo-1,2,3,5,6,7,8,9,10,11,13a,14,14a,15,16,16a-hexadecahydrocyclopropa[e]pyrrolo[1,2-a][1,4]diazacyclopentadecin-6-yl)carbamate] | < 5.46 nM | < 5.46 nM
8 | COc1ccc2c(O[C@@H]3C[C@H]4C(=O)N[C@]5(C(=O)NS(=O)(=O)C6(CF)CC6)C[C@H]5/C=C\CC[C@H](C)C[C@@H](C)[C@H](NC(=O)OC5(C(F)(F)F)CCCOC5)C(=O)N4C3)nc(C(F)(F)F)cc2c1 (stereo partly drawn) [Compound 1172, 3-(trifluoromethyl)tetrahydro-2H-pyran-3-yl((2R,6S,7R,9S,13aS,14aR,16aS,Z)-14a-(((1-(fluoromethyl)cyclopropyl)sulfonyl)carbamoyl)-2-((6-methoxy-3-(trifluoromethyl)isoquinolin-1-yl)oxy)-7,9-dimethyl-5,16-dioxo-1,2,3,5,6,7,8,9,10,11,13a,14,14a,15,16,16a-hexadecahydrocyclopropa[e]pyrrolo[1,2-a][1,4]diazacyclopentadecin-6-yl)carbamate] | > 87.4 nM | 4.82 to 103 nM
9 | COc1ccc2c(O[C@@H]3C[C@H]4C(=O)N[C@]5(C(=O)NS(=O)(=O)C6(CF)CC6)C[C@H]5/C=C\CC[C@@H](C)C[C@@H](C)[C@H](NC(=O)OC5(C(F)(F)F)CCCOC5)C(=O)N4C3)nc(C(F)(F)F)cc2c1 (stereo partly drawn) [Compound 1173, 3-(trifluoromethyl)tetrahydro-2H-pyran-3-yl((2R,6S,7R,9R,13aS,14aR,16aS,Z)-14a-(((1-(fluoromethyl)cyclopropyl)sulfonyl)carbamoyl)-2-((6-methoxy-3-(trifluoromethyl)isoquinolin-1-yl)oxy)-7,9-dimethyl-5,16-dioxo-1,2,3,5,6,7,8,9,10,11,13a,14,14a,15,16,16a-hexadecahydrocyclopropa[e]pyrrolo[1,2-a][1,4]diazacyclopentadecin-6-yl)carbamate] | < 5.46 nM | < 5.46 nM
